# Test results from patent publication US7330794B2, “Water monitoring system using bivalve mollusks” (Aqueous Solutions, Inc., priority 2000, dated 2008).
# Test system: bivalve mollusks
# Assay: Water screening with bivalve mollusks: shell gape and Degree of Alarm (DOA) on toxicant exposure
# Assay type: in vivo
# Method: Further calibration of the system is performed after one or more mollusk chambers are properly installed. The digital circuitry or computer 39 then monitors the gape of the mollusk during approximately the first three days after installation. From the gape values derived during this period, the computer derives a natural maximum gape value for the individual mollusk. Subsequent calculations based on output from the mollusk chamber 15 are based on the percentage of gape, i.e., the percentage of the maximum gape output value that the presently detected gape output value represents.
# When the system 3 contains a number of mollusk chambers 15, the individual mollusk percentage gape data for all of the mollusks of the system is totaled, and the average percentage gape value calculated periodically per sampling interval by computer 38. This mean data value Gi is the variable used as the mollusk output data for determining if toxicants are present in the water being screened.
# In the present specification, Gi means the current average mollusk gape data, Gi−i means the most recent earlier mollusk output value, Gi−2 the next earlier mollusk output variable, etc. The oldest of the gape values is Gi−n+1. Preferably, the set of data values Gi−n+1 to Gi are stored in a FIFO (first-in, first-out) stack data structure in the computer doing the analysis. The stack acts as a shift register, shifting earlier data values as the new data value Gi is acquired. Preferably the value of n is 30, and the data values G are acquired every half-second.
# According to an aspect of the invention, the variance over time of the gape values is one of the best statistical indicators of the pumping of the mollusk. By the term variance, what is meant is a determination of the variability of the gape values from a mean value, which may be determined or expressed using a variety of functions. Particularly preferred, however, is the classical calculation of variance as:
# In a basic method for toxicant detection, DOA is calculated continuously using the formula DOA=(V·|R|)/M wherein V is the mean variance in gape over a recent period of time, preferably 30 seconds, R is the mean regression of the gape over the period (regression herein meaning the slope of the best-fit line through the data values of the time period). M may be the traveling mean as defined above, or may be the mean gape taken over another longer period, preferably about one hour.
# An implementation of this method is shown by the graphs of FIGS. 7 to 10. Water being screened by a system as described previously was loaded with sulphuric acid, resulting in a drop in pH as shown in the graph of FIG. 7.
# When the variance is below this threshold value, a first, less sensitive function of the gape data values is used to calculate the DOA value. Such a function might be a linear calculation such as DOA=(1−Gi)*10 which would yield a DOA value between 0 and 10, with 10 corresponding to the mollusk completely closing its shell and strongly indicating presence of toxicant.
# When the variance value is greater than or equal to the threshold value, the DOA value may be calculated by a different function which amplifies the calculation from the closing of the shell during the period of high variance. Particularly preferred is a more sensitive high-variance function: DOA=f(Gi)+V/K
# An implementation of such a DOA method using a Logistic calculation, with a variance factor added for variances over 50, is illustrated by the graphs of FIGS. 12 to 16.
# In this example, a system as in Example 3 was used, only the toxicant introduced was copper (as aqueous CuSO4), as shown in FIG. 17.
structure (smiles),measurement,setting,value
O=S(=O)(O)O [sulphuric acid],"DOA (Degree of Alarm) values, spike","sulphuric acid, DOA=(V·|R|)/M, appears before 200 minutes, FIG. 10",greater than 100
same,percentage gape at the variance spike,"sulphuric acid, variance spikes shortly before 200 minutes, FIG. 9",≤ 40%
same,average percentage gape of the mollusks,"water loaded with sulphuric acid (pH drop), shortly after 200 minutes, FIG. 8",less than 10 % of the normal maximum
"O=S(=O)([O-])[O-].[Cu+2] [copper, CuSO4]",gape when DOA exceeded 8,"copper (aqueous CuSO4), between 0.5 and 1.0 hours",50%
same,DOA values,"copper (aqueous CuSO4), system as in Example 3, between 0.5 and 1.0 hours, copper concentration still relatively low, FIG. 21",exceed 8 out of a possible 10
"[Cl-].[Na+] [chloride, NaCl]",DOA output,"chloride, Logistic calculation with variance factor for variances over 50, at 0.5 hours, chloride concentration still relatively low, FIG. 16",greater than 5
same,"raw gape data, decreasing over time","gradually increasing concentration of chloride (aqueous NaCl), FIG. 13",less than 40 % of normal maximum gape
